From paper PMC9230573 (Frontiers in Pharmacology, 2022)
Where a SMILES comes first, the peptide text is derived from it. Bridges are numbered along the chain shown (N, C = ends).

Target: human CaV2.2 (α1B, β3, α2δ1) (Homo sapiens, UniProt Q00975)
Assay: cell-based

Chain of human CaV2.2 (α1B, β3, α2δ1) (Q00975 whole entry, looked up): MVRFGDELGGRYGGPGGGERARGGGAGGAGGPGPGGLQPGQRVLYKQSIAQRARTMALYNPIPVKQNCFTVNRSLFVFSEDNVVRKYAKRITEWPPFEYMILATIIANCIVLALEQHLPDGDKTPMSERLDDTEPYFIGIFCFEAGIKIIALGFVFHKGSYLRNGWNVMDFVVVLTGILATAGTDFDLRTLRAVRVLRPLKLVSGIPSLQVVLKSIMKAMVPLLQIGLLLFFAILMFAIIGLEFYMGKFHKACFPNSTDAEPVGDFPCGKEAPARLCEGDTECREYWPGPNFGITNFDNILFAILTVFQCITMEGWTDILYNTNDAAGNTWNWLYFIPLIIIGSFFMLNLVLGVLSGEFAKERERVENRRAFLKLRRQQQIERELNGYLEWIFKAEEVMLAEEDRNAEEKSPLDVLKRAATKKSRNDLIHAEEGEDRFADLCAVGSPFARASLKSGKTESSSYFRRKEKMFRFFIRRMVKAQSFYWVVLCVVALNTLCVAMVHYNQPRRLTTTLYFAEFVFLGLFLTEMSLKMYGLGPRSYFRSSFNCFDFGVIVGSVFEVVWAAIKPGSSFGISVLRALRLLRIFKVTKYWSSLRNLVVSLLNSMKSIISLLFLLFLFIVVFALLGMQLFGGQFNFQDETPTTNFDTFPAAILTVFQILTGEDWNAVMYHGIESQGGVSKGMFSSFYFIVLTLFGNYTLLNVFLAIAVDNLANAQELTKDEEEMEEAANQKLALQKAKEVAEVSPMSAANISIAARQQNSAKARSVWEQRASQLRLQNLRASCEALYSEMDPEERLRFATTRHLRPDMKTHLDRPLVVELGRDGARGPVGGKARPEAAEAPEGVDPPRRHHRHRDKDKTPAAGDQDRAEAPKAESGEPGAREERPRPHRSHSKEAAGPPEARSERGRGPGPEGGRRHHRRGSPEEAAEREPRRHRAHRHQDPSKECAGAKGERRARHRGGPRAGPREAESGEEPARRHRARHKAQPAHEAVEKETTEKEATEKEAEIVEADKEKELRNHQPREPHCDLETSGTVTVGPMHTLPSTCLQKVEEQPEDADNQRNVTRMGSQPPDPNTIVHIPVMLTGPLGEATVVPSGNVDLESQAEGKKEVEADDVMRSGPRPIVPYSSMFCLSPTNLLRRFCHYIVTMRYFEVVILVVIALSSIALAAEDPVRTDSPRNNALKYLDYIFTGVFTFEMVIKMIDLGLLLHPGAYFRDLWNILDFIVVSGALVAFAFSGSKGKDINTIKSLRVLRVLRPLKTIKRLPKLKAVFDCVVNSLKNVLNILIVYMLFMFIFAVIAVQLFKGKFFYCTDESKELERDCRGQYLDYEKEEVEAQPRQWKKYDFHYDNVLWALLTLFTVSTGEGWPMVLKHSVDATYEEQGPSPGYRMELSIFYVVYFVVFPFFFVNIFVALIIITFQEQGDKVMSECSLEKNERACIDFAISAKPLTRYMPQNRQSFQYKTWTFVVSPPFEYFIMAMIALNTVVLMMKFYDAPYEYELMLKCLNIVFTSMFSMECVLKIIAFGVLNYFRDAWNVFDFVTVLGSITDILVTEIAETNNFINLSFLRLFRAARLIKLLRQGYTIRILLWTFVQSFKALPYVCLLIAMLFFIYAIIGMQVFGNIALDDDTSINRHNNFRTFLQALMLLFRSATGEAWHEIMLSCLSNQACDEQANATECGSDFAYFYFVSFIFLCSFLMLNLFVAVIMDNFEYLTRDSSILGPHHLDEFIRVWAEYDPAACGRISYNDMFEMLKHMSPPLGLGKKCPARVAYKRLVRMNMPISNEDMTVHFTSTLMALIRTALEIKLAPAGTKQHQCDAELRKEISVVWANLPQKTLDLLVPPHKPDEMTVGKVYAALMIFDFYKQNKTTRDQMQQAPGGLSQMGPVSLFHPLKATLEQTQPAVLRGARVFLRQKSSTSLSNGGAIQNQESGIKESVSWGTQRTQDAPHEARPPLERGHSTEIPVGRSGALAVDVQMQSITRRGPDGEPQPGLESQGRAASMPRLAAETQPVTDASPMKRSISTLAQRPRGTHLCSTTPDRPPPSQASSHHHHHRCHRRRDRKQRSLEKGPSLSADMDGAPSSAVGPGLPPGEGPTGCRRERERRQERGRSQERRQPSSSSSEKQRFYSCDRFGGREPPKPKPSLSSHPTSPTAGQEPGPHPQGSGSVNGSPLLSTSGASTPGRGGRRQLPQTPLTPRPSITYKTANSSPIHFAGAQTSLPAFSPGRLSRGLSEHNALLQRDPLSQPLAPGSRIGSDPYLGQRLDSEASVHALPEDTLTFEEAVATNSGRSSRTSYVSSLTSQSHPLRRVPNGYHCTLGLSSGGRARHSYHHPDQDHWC

## CC[C@H](C)[C@@H]1NC(=O)[C@@H]2CCCN2C(=O)[C@@H]2CSSC[C@H](NC(=O)[C@@H](N)CC(N)=O)C(=O)N[C@@H](CSSC[C@@H](C(N)=O)NC(=O)[C@H](CC(N)=O)NC(=O)[C@H](Cc3ccccc3)NC(=O)[C@H](CCCNC(=N)N)NC(=O)[C@H](CO)NC(=O)[C@H](Cc3ccc(O)cc3)NC(=O)[C@H](CC(=O)O)NC1=O)C(=O)N[C@@H](CCSC)C(=O)N[C@@H](Cc1ccccc1)C(=O)N[C@@H](Cc1c[nH]cn1)C(=O)N[C@@H]([C@@H](C)O)C(=O)N2 [Vt1.27] (H-NCCMFHTCPIDYSRFNC-NH2; disulfide 2-8, 3-17)
  IC50: 398 nM
  half-maximum inactivation (V0.5, inact): −69.0 ± 1.0 mV
  shift of half-maximum inactivation (V0.5, inact): 3 mV
  τoff (off kinetics of inhibition): 2.7 ± 0.15 s
  τon (on kinetics of inhibition): 4.5 ± 0.48 s
